Patent US5576188A, “Immunological detection of metolachlor” (Ciba-Geigy Corporation, priority 1990, dated 1996)

Key:
MAb 4082-25-4 [1] = assay: Indirect competitive ELISA (assay A), inhibition of MAb 4082-25-4 binding / cross-reactivity; design: species or system BALB/c mouse; conditions: for I50 (inhibitor concentration for 50% inhibition in the competitive ELISA): MAb 4082-25-4; for Cross-reactivity (metolachlor concentration for 50% inhibition / concentration of metolachlor analogue for 50% inhibition × 100): MAb 4082-25-4, relative to metolachlor
Excerpt: The percentage cross-reactivity is to be defined within the scope of this invention by the following relation:
(Metolachlor concentration for 50% inhibition/concentration of the metolachlor analogues for 50% inhibition)×100.
A 50% inhibition can be determined, for example, with the aid of a competitive ELISA assay (compare Example 8). This then corresponds, for example, to that antigen concentration which leads to 50% inhibition of antibody binding to the carrier-bound antigen.
8.1: Indirect ELISA (assay A)
Metolachlor is detected by means of a two-stage competitive ELISA test using an enzyme-labelled second antibody.
BSA-conjugated hapten in a 50 mM sodium carbonate buffer (pH 9.6) (200 ng of BSA-conjugated hapten/100 μl of sodium carbonate buffer) is initially adsorbed onto microtitre plates (for example Dynatech, type M 129A) and incubated at a temperature of 4° C. overnight. It has emerged that the sensitivity of the assay can be increased almost 5-fold by reducing the conjugate[BSA/hapten] concentration from 200 ng/100 μl of sodium carbonate buffer to 50 ng/100 μl of sodium carbonate buffer because the coating is improved.
The plates are then washed 5× with PBS buffer which is supplemented with 0.1% (v/v) polysorbate 20 (Tween 20) (PBS-Tween).
The remaining free binding sites on the solid support material are then blocked by adding BSA in the form of a 1% solution. After incubation at 22° C. for two hours the plates are again washed with PBS-Tween (0.1%).
50 μl of the previously purified monoclonal antibodies (0.2 μg/ml) or else of the supernatant of the cell clones (in a dilution of 1:15) are incubated a) with 950 μl of a standard solution which contains an increasing content of metolachlor or metolachlor analogue, b) with metolachlor-containing water samples or c) metolachlor-containing soil extracts. (PBS-Tween is used for all dilutions).
After an incubation time of 1 hour at room temperature (22° C.), 200 μl of the antigen/antibody mixture are added to each well of the microtitre plate, and the entire mixture is incubated for a further hour. The wells are then washed 5× with PBS-Tween (0.1%) and charged with 100 μl/well of goat anti-mouse IgG antibody which is conjugated to alkaline phosphatase (dilution 1:1500) and incubated for a period of 1.5 hours.
After renewed washing, 150 μl/well of the substrate p-nitrophenyl phosphate which is dissolved in 1 mg/ml diethanolamine buffer (1 mM, pH 9.8, supplemented with 0.5 mM MgCl2 ×6H2 O) are added to the wells.
After an incubation time of 2 hours at a temperature of 22° C. it is possible to observe a colour change which is proportional to the amount of antibody which has reacted with the antigen bound to the solid phase. The intensity of the colour reaction which has occurred is determined at a wavelength of 405 nm. The dilutions of the individual samples are chosen so that absorptions in a range between 0.3 and 0.5 are obtained without addition of an inhibitor (Bo). Values of R≤0.005 are found for the controls (without antibody and with undetectable amounts of antigen). All the samples are determined in triplicate.
(§1) For the determination of the amount of metolachlor contained in a sample, initially a calibration plot is constructed (FIG. 1), where B/Bo×100is plotted against the concentration of inhibitor. (Bo represents the absorbance measured without addition of a metolachlor inhibitor to the antibody, and B means the absorbance measured with various concentrations of metolachlor inhibitor). […] The I50 value is calculated using an ENZFITTER (Leatherbarrow, Elsevier-Biosoft) plot calculation program specifically adapted to the present circumstances and based on a logistic plot embracing 4 parameters (Raab GM, 1983). The quantitative determination of metolachlor in samples of soil or water within the scope of the ELISA is also carried out using the ENZFITTER program, with the fitting of the plot being based on standards included on each microtitre plate. […]

MAb 4082-25-4 [2] = assay: Direct competitive ELISA (assay B); format: binding, BALB/c mouse
Method: 8.2: Direct ELISA (assay B)
Microtitre plates [Dynatech M 129A] are coated with monoclonal antibodies [for example MAb 4082-25-4; 75 ng/100 μl of 50 mM sodium carbonate buffer, pH 9.6] and incubated at a temperature of 4° C. overnight. The plates are then washed 5 times with 0.1% (v/v) PBS-Tween and subsequently incubated with PBS supplemented with 1% (w/v) BSA for 2 hours in order to block the binding sites which are still free. After renewed washing, 150 μl of a standard solution are added to each of the wells of the microtitre plates which contain increasing amounts of metolachlor in 0.1% (v/v) PBS-Tween. This is followed by incubation at a temperature of 22° C. for 1 hour. […] After incubation at 22° C. in the dark for 2 hours, the absorption of 405 nm is determined.
as §1, with “1983).” for “1983). The quantitative determination of metolachlor in samples of soil or water within the scope of the ELISA is also carried out using the ENZFITTER program, with the fitting of the plot being based on standards included on each microtitre plate.”

Structure (SMILES)	I50 (inhibitor concentration for 50% inhibition in the competitive ELISA) (MAb 4082-25-4 [1]) [ng/mL]	Cross-reactivity (metolachlor concentration for 50% inhibition / concentration of metolachlor analogue for 50% inhibition × 100) (MAb 4082-25-4 [1]) [%]	I50 (MAb 4082-25-4 [2]) [ng/mL]
CCc1cccc(C)c1NC(C)COC (stereo not drawn) [B]	> 1000	< 0.1	–
COCC(=O)N(c1c(C)cccc1CO)C(C)C(=O)OC (stereo not drawn) [M]	> 1000	< 0.1	–
CCc1cccc(C)c1N(C(=O)CO)C(C)COC (stereo not drawn) [A]	43	1.4	–
COCC(=O)N(c1c(C)cccc1C)C(C)C(=O)OC (stereo not drawn) [L]	> 1000	–	–
COCC(=O)N(c1c(C)cccc1C)C(C)C(=O)OC (stereo not drawn) [matalaxyl]	–	< 0.1	–
COCC(=O)Nc1c(C)cccc1C [J]	> 1000	< 0.1	–
CCc1cccc(CC)c1N(COC)C(=O)CCl [Alachlor]	> 1000	< 0.1	–
CCc1cccc(C)c1NC(=O)CO [D]	> 1000	< 0.1	–
COC(=O)C(C)Nc1c(C)cccc1C (stereo not drawn) [Compound I]	> 1000	< 0.1	–
COCC(=O)N(c1c(C)cccc1C)C(C)C(=O)O (stereo not drawn) [G]	> 1000	< 0.1	–
CCc1cccc(C)c1N(C(=O)CO)C(C)CO (stereo not drawn) [F]	> 1000	< 0.1	–
Cc1cccc(C)c1NC(C)C(=O)O (stereo not drawn) [K]	> 1000	< 0.1	–
CCc1cccc(C)c1N(C(=O)CCl)C(C)COC (stereo not drawn) [Metolachlor, 2-chloro-6'-ethyl-N-(2-methoxy-1-methyl-ethyl)acet-O-toluidide]	0.6	100	1.0
CCc1cccc(C)c1NC(C)CO (stereo not drawn) [E]	> 1000	< 0.1	–
COC(=O)C(C)N(C(=O)c1ccco1)c1c(C)cccc1C (stereo not drawn) [furalaxyl]	–	< 0.1	–
COC(=O)C(C)N(C(=O)c1ccco1)c1c(C)cccc1C (stereo not drawn) [N]	> 1000	–	–
CCc1cccc(C)c1NC(=O)CCl [C]	> 1000	< 0.1	–
Cc1cccc(C)c1N(C(=O)CO)C(C)C(=O)O (stereo not drawn) [H]	> 1000	< 0.1	–
